Source: US6403561B1, “Tripeptidylpeptidase inhibitors” (Institut National de la Sante et de la Recherche Medicale …, priority 1998, dated 2002)
Where a name gives a salt, the structure may show the parent alone. Where a SMILES comes first, the peptide text is derived from it. [ ]: non-standard residue; d: D form. The star is where a group is joined. ξ: configuration not given here. Pro(cis-4-F) = O=C(O)[C@@H]1C[C@H](F)CN1; Tic = O=C(O)[C@@H]1Cc2ccccc2CN1; Abu = CC[C@H](N)C(=O)O; ξAbu = CCC(N)C(=O)O; NHBu = CCCCN*; NHPr = CCCN*

Tests used:
[1] = molecular target: membrane-bound tripeptidylpeptidase II (Rattus norvegicus, UniProt Q64560); test: Measurement of the activity of membrane-bound tripeptidylpeptidase (release of Amc from A-AP-Amc, fluorimetry); conditions: apparent dissociation constant calculated from the 50% inhibitory concentration and the KM of the substrate (23 μM), rat brain membranes, 50 μM A-AP-Amc
Chain of membrane-bound tripeptidylpeptidase II (Q64560 whole entry): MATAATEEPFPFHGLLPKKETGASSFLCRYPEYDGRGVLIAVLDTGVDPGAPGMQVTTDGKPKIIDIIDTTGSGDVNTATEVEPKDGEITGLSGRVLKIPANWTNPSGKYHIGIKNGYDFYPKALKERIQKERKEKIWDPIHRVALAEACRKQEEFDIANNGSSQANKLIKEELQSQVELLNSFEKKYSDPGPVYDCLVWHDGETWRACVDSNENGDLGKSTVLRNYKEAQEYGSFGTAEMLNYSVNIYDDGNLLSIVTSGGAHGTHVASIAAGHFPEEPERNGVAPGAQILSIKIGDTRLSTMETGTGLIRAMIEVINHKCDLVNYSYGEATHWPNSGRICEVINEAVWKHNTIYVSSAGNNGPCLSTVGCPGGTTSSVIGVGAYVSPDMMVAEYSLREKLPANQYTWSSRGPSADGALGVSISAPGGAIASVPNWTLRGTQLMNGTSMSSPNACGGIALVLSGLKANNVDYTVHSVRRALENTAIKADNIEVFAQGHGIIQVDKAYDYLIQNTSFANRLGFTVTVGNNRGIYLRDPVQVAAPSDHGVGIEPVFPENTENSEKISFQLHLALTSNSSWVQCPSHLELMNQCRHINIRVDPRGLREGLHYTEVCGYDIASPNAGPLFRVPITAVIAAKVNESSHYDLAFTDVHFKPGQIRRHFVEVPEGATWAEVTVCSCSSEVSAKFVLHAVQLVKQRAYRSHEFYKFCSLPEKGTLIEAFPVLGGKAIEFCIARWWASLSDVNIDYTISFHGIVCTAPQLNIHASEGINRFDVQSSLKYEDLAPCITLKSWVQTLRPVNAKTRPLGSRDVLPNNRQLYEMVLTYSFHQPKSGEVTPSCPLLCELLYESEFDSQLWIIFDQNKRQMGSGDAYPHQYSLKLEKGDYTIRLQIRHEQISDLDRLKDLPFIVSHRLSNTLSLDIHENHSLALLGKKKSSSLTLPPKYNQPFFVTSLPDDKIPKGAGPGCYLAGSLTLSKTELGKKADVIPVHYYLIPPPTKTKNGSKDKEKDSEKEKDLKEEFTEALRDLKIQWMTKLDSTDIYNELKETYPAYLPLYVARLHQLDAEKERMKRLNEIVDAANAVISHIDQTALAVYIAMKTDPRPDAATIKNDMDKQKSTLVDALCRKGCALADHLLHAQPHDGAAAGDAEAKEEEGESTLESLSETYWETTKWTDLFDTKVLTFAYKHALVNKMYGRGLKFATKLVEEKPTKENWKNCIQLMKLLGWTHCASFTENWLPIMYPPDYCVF
Method: Membranes from rat brain were obtained by centrifugation (200,000×g min) of a homogenate prepared in 10 volumes of 50 mM potassium phosphate buffer, pH 7.4.
After washing thoroughly, the centrifugation pellet is taken up in the buffer containing 10% glycerol and 0.1% Brij 35 in order to obtain a concentration of 25 mg of proteins/ml.
The release of Amc is evaluated by fluorimetry.

Compound	Ki ([1]; Ki) [nM]	also measured
CCCNC(=O)[C@@H]1Cc2ccccc2N1C(=O)[C@@H](N)CC (as salt: oxalate) (hydrate or solvate)		melting point: 130 to 131 °C
CC[C@H](N)C(=O)N1c2ccccc2C[C@H]1C(=O)NC (as salt: oxalate) (hydrate or solvate) [Example 16, 1-(2(S)-aminobutyryl)-2(S)-indolinecarboxylic Acid methylamide]		melting point: 138 to 139 °C
CCCCCCNC(=O)[C@@H]1CCCN1C(=O)[C@@H](N)C(C)C (as salt: oxalate) [Example 1, L-valyl-L-proline n-hexylamide]		melting point: 146 to 147 °C
CC[C@H](N)C(=O)N1CCC[C@H]1C(=O)NCCCSC (as salt: oxalate) [Example 2, 1-(2(S)-amino-butyryl)-L-proline 3-(methylthio)propylamide]		melting point: 120 to 121 °C
CCCCCNC(=O)[C@@H]1CCCN1C(=O)[C@@H](N)CC (as salt: oxalate) [Example 3, 1-(2(S)-aminobutyryl)-L-proline n-pentylamide]		melting point: 140 to 141 °C
CCCCNC(=O)[C@@H]1CCCN1C(=O)[C@@H](N)CC (as salt: oxalate) [Example 4, 1-(2(S)-amino-butyryl)-L-proline n-butylamide] (H-[Abu]-Pro-NHBu)		melting point: 165 to 167 °C
CCCCNC(=O)C1Cc2cc(OCc3ccccc3)ccc2N1C(=O)[C@@H](N)CC (mixture of isomers) [Example 21]	1000	
CCCCNC(=O)C1N(C(=O)[C@@H](N)CC)c2ccccc2C1(C)C (mixture of isomers) [Example 28, 1-(2(S)-aminobutyryl)-3,3-dimethylindoline-2(R/S)-carboxylic Acid Butylamide Oxalate]	864	
CCCCNC(=O)C1C(C)c2ccccc2N1C(=O)C(N)CC (single isomer, unassigned) [Example 29]	593	
CCC(N)C(=O)N1CCC[C@H]1C(N)=O (stereo partly drawn) [2 (S)-aminobutyryl-L-prolineamide, reference compound] (H-[ξAbu]-Pro-NH2)	570	
CCCCCCNC(=O)[C@@H]1CCCN1C(=O)[C@@H](N)C(C)C [Example 1, L-valyl-L-proline n-hexylamide]	900	
CC[C@H](C)CNC(=O)[C@@H]1CCCN1C(=O)[C@@H](N)CC [Example 5, 1-(2(S)-aminobutyryl)-L-proline [2(S)methyl]butylamide]	500	
CC[C@H](N)C(=O)N1CCC[C@H]1C(=O)NCC(C)C [Example 7, 1-(2(S)-amino-butyryl)-L-proline isobutylamide]	320	
CCCCNC(=O)[C@@H]1CCCN1C(=O)[C@@H](N)C(C)C [Example 8, L-valyl-L-proline n-butylamide] (H-Val-Pro-NHBu)	570	
CCCCNC(=O)[C@@H]1C[C@H](F)CN1C(=O)[C@@H](N)CC [Example 11, 1-(2(S)-amino-butyryl)-(4(S)-fluoro)-L-proline n-butylamide] (H-[Abu]-[Pro(cis-4-F)]-NHBu)	320	
CCCCNC(=O)[C@@H]1C[C@H](Cc2ccccc2)CN1C(=O)[C@@H](N)CC [Example 12, 1-(2(S)-aminobutyryl)-(4(S)-benzyl)-L-proline n-butylamide]		Ki [1]: 140 nM
L-alanyl-L-prolyldifluoro-L-borovaline borohydride [Example 10]		Ki [1]: 0.3 nM

More lines, in order of falling Ki ([1]; Ki), values ahead:

Ki ([1]; Ki) [nM]	Compound	also measured
300	CC[C@H](N)C(=O)N1CCC[C@H]1C(=O)NCCCSC [Example 2, 1-(2(S)-amino-butyryl)-L-proline 3-(methylthio)propylamide]	
270	CCCCCNC(=O)[C@@H]1CCCN1C(=O)[C@@H](N)CC [Example 3, 1-(2(S)-aminobutyryl)-L-proline n-pentylamide]	
241	CCCCNC(=O)[C@H]1Cc2cc(OC)ccc2N1C(=O)[C@@H](N)CC [18 (S,R) isomer]	
146	CCCCNC(=O)C1Cc2cc(OC)ccc2N1C(=O)[C@@H](N)C(C)C (mixture of isomers) [Example 24, 1-(L-valyl)-5-methoxyindoline-2(R/S)-carboxylic Acid Butylamide Oxalate]	
143	CCCCNC(=O)C1c2ccccc2CN1C(=O)[C@@H](N)CC (mixture of isomers) [Example 23, 2-(2(S)-aminobutyryl)-1-(R/S)-isoindolinecarboxylic Acid N-butylamide]	
100	CCCCNC(=O)[C@@H]1CCCN1C(=O)[C@@H](N)CC [Example 4, 1-(2(S)-amino-butyryl)-L-proline n-butylamide] (H-[Abu]-Pro-NHBu)	
80	CCCNC(=O)[C@@H]1CCCN1C(=O)[C@@H](N)CC [Example 6, 1-(2(S)-amino-butyryl)-L-proline n-propylamide] (H-[Abu]-Pro-NHPr)	
77	CCCCNC(=O)C1Cc2ccc(OC)cc2N1C(=O)[C@@H](N)CC (mixture of isomers) [Example 19, 1-(2(S)-aminobutyryl)-2(R/S)-(6-methoxy)indolinecarboxylic acid n-butylamide]	
40	CCCCNC(=O)[C@@H]1Cc2ccccc2CN1C(=O)[C@@H](N)CC [Example 13, 2-(2(S)-amino-butyryl)-1,2,3,4-tetrahydro-3(S)-isoquinolinecarboxylic Acid n-butylamide] (H-[Abu]-[Tic]-NHBu)	
32	CCCCNC(=O)C1C(C)c2ccccc2N1C(=O)C(N)CC (single isomer, unassigned) [Example 30]	
26	CCCCNC(=O)C1Cc2cc(OC)ccc2N1C(=O)[C@H](C)N (mixture of isomers) [Example 25, 1-(L-alanyl)-5-methoxyindoline-2(R/S)-carboxylic Acid Butylamide Oxalate]	
22.6	CCCCNC(=O)C1Cc2cc(C)ccc2N1C(=O)[C@@H](N)CC (mixture of isomers) [Example 35, 1-2(S)-aminobutyryl-5-methylindoline-2(R/S)-carboxylic Acid Butylamide Oxalate]	
14	CCCCNC(=O)C1Cc2c(OC)cccc2N1C(=O)[C@@H](N)CC (mixture of isomers) [Example 27, 1-(2(S)-aminobutyryl)-4-methoxyindoline-2(R/S)-carboxylic Acid Butylamide Oxalate]	
12	CCCCNC(=O)C1Cc2cc(F)ccc2N1C(=O)[C@@H](N)CC (mixture of isomers) [Example 20, 1-(2(S)-aminobutyryl)-2(R/S)-(5-fluoro)indolinecarboxylic Acid N-butylamide]	
10.4	CCCCNC(=O)C1Cc2cc(O)ccc2N1C(=O)[C@@H](N)CC (mixture of isomers) [Example 34, 1-2(S)-aminobutyryl-5-hydroxyindoline-2(R/S)-carboxylic Acid Butylamide Oxalate]	
9.6	CCCCNC(=O)C1Cc2c(ccc(OC)c2OC)N1C(=O)[C@@H](N)CC (mixture of isomers) [Example 32, 1-(2(S)-aminobutyryl)-4,5-dimethoxyindoline-2(R/S)-carboxylic Acid Butylamide Oxalate]	
8	CCCCNC(=O)C1Cc2cc(OC)ccc2N1C(=O)[C@@H](N)CC (mixture of isomers) [Example 18, 1-(2(S)-amino-butyryl)-2(R/S)-(5-methoxy)indolinecarboxylic Acid n-butylamide]	
6	CCCCNC(=O)[C@@H]1Cc2cc(OC)ccc2N1C(=O)[C@@H](N)CC [18 (S,S) isomer]	
